Assays:
late watergrass = experiment: Test Example 2: herbicidal activity, application during weed generation under submerged conditions (Table 17, symbol A); format: in vivo, late watergrass (Echinochloa oryzicola); conditions: application during weed generation, submerged conditions
Protocol: (§1) [Test Example 2] Herbicidal Activity Test by Application during Weed Generation under Submerged Conditions After alluvial soil was placed into 1/10000 are of Wagner pot, water was poured and mixed to form a submerged condition having a water depth of 4 cm. Seeds of late watergrass, Japanese bulrush, and oval-leafed pondweed were sowed in a mixed manner in the aforementioned pot, and the pot was placed in a greenhouse at 25° C. to 30° C. for growth of the plants. When late watergrass, Japanese bulrush, and oval-leafed pondweed were grown to one leaf stage to two leaf stage, the emulsion agent of the compound of the present invention prepared according to Formulation Example 2 was diluted with water so as to achieve a predetermined herbicide amount, and the diluted emulsion agent was applied to the surface of the water. Three weeks after the herbicide application, the effect of the herbicide on each plant was evaluated according to the criteria of Test Example 1.

Japanese bulrush = experiment: Test Example 2: herbicidal activity, application during weed generation under submerged conditions (Table 17, symbol B); format: in vivo, Japanese bulrush (Schoenoplectus juncoides); conditions: application during weed generation, submerged conditions
Method in brief: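 Herbicide emulsion, diluted with water to the chosen amount, is applied onto 4 cm floodwater over alluvial soil where the weeds were co-sown and raised at 25–30° C. Application timing: 1–2 leaves. Assessment: three weeks afterwards.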

oval-leafed pondweed = experiment: Test Example 2: herbicidal activity, application during weed generation under submerged conditions (Table 17, symbol C); format: in vivo, oval-leafed pondweed (Monochoria vaginalis); conditions: application during weed generation, submerged conditions
Protocol: as §1

barnyard grass [1] = experiment: Test Example 3: herbicidal effect by foliage application, Wagner pot (Table 18, symbol H); format: in vivo, barnyard grass (Echinochloa crus-galli); conditions: for herbicidal effect on barnyard grass (H): 320 g/ha
Method in brief: (§2)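 Plants were sown in alluvial soil held under 0.1–0.5 cm standing water and grown 14 days in a greenhouse at 25–30 °C. An emulsifiable formulation, water-diluted to the set dose, was then sprayed onto the foliage, and effects were scored three weeks later using previously defined criteria.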

Chinese sprangletop = experiment: Test Example 3: herbicidal effect by foliage application, Wagner pot (Table 18, symbol D); format: in vivo, chinese sprangletop (Leptochloa chinensis); conditions: for herbicidal effect on Chinese sprangletop (D): 320 g/ha
Method in brief: as §2

rice flat sedge = experiment: Test Example 3: herbicidal effect by foliage application, Wagner pot (Table 18, symbol E); format: in vivo, rice flat sedge (Cyperus iria); conditions: for herbicidal effect on rice flat sedge (E): 320 g/ha
Method in brief: as §2

southern crabgrass = experiment: Test Example 5: herbicidal effect by foliage application, plastic box (Table 20, symbol F); format: in vivo, southern crabgrass (Digitaria ciliaris); conditions: for herbicidal effect on F: southern crabgrass (evaluation grade 0-5): 320 g/ha, foliage application after 14-day growth, evaluated three weeks after application
Method in brief: (§3)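 Post-emergence foliar test in sterilized diluvial soil. Compound applied as water-diluted emulsion at a predetermined rate to 14-day-old plants; evaluation at three weeks.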

green foxtail = experiment: Test Example 5: herbicidal effect by foliage application, plastic box (Table 20, symbol G); format: in vivo, green foxtail (Setaria viridis); conditions: for herbicidal effect on G: green foxtail (evaluation grade 0-5): 320 g/ha, foliage application after 14-day growth, evaluated three weeks after application
Method in brief: as §3

barnyard grass [2] = experiment: Test Example 5: herbicidal effect by foliage application, plastic box (Table 20, symbol H); format: in vivo, barnyard grass (Echinochloa crus-galli); conditions: for herbicidal effect on H: barnyard grass (evaluation grade 0-5): 320 g/ha, foliage application after 14-day growth, evaluated three weeks after application
Method in brief: as §3

wild oat = experiment: Test Example 5: herbicidal effect by foliage application, plastic box (Table 20, symbol I); format: in vivo, wild oat (Avena fatua); conditions: for herbicidal effect on I: wild oat (evaluation grade 0-5): 320 g/ha, foliage application after 14-day growth, evaluated three weeks after application
Method in brief: as §3

blackgrass = experiment: Test Example 5: herbicidal effect by foliage application, plastic box (Table 20, symbol J); format: in vivo, blackgrass (Alopecurus myosuroides); conditions: for herbicidal effect on J: blackgrass (evaluation grade 0-5): 320 g/ha, foliage application after 14-day growth, evaluated three weeks after application
Method in brief: as §3

Italian ryegrass = experiment: Test Example 5: herbicidal effect by foliage application, plastic box (Table 20, symbol K); format: in vivo, Italian ryegrass (Lolium multiflorum); conditions: for herbicidal effect on K: Italian ryegrass (evaluation grade 0-5): 320 g/ha, foliage application after 14-day growth, evaluated three weeks after application
Method in brief: as §3

windgrass = experiment: Test Example 5: herbicidal effect by foliage application, plastic box (Table 20, symbol L); format: in vivo, windgrass (Apera spica-venti); conditions: for herbicidal effect on L: windgrass (evaluation grade 0-5): 320 g/ha, foliage application after 14-day growth, evaluated three weeks after application
Method in brief: as §3

velvetleaf = experiment: Test Example 5: herbicidal effect by foliage application, plastic box (Table 20, symbol M); format: in vivo, velvetleaf (Abutilon theophrasti); conditions: for herbicidal effect on M: velvetleaf (evaluation grade 0-5): 320 g/ha, foliage application after 14-day growth, evaluated three weeks after application
Method in brief: as §3

redroot pigweed = experiment: Test Example 5: herbicidal effect by foliage application, plastic box (Table 20, symbol N); format: in vivo, redroot pigweed (Amaranthus retroflexus); conditions: for herbicidal effect on N: redroot pigweed (evaluation grade 0-5): 320 g/ha, foliage application after 14-day growth, evaluated three weeks after application
Method in brief: as §3

lambsquarters = experiment: Test Example 5: herbicidal effect by foliage application, plastic box (Table 20, symbol O); format: in vivo, lambsquarters (Chenopodium album); conditions: for herbicidal effect on O: lambsquarters (evaluation grade 0-5): 320 g/ha, foliage application after 14-day growth, evaluated three weeks after application
Method in brief: as §3

chickweed = experiment: Test Example 5: herbicidal effect by foliage application, plastic box (Table 20, symbol P); format: in vivo, common chickweed (Stellaria media); conditions: for herbicidal effect on P: chickweed (evaluation grade 0-5): 320 g/ha, foliage application after 14-day growth, evaluated three weeks after application
Method in brief: as §3

persian speedwell = experiment: Test Example 5: herbicidal effect by foliage application, plastic box (Table 20, symbol R); format: in vivo, Persian speedwell (Veronica persica); conditions: for herbicidal effect on R: persian speedwell (evaluation grade 0-5): 320 g/ha, foliage application after 14-day growth, evaluated three weeks after application
Method in brief: as §3

[3] = amount of applied herbicide 285 g/ha
[4] = foliage application, 285 g/ha, three weeks after application

SMILES	herbicidal effect rating, A: late watergrass (late watergrass; AAH 320 g/ha)	herbicidal effect rating, B: Japanese bulrush (Japanese bulrush; AAH 320 g/ha)	herbicidal effect rating, C: oval-leafed pondweed (oval-leafed pondweed; AAH 320 g/ha)	herbicidal effect on barnyard grass (H) (barnyard grass [1])	herbicidal effect on Chinese sprangletop (D) (Chinese sprangletop)	herbicidal effect on rice flat sedge (E) (rice flat sedge)	herbicidal effect on F: southern crabgrass (evaluation grade 0-5) (southern crabgrass)	herbicidal effect on G: green foxtail (evaluation grade 0-5) (green foxtail)	herbicidal effect on H: barnyard grass (evaluation grade 0-5) (barnyard grass [2])	herbicidal effect on I: wild oat (evaluation grade 0-5) (wild oat)	herbicidal effect on J: blackgrass (evaluation grade 0-5) (blackgrass)	herbicidal effect on K: Italian ryegrass (evaluation grade 0-5) (Italian ryegrass)	herbicidal effect on L: windgrass (evaluation grade 0-5) (windgrass)	herbicidal effect on M: velvetleaf (evaluation grade 0-5) (velvetleaf)	herbicidal effect on N: redroot pigweed (evaluation grade 0-5) (redroot pigweed)	herbicidal effect on O: lambsquarters (evaluation grade 0-5) (lambsquarters)	herbicidal effect on P: chickweed (evaluation grade 0-5) (chickweed)	herbicidal effect on R: persian speedwell (evaluation grade 0-5) (persian speedwell)	also measured
CCOC(=O)OC(C)Oc1c(C)nn(C)c(=O)c1-c1c(-c2ccccc2OC)sc2cc(F)ccc12 (stereo not drawn) [3-029]																			herbicidal effect rating, A: late watergrass (late watergrass; AAH 285 g/ha): 0 (Herbicidal rate of 5% or less (almost no effect)); herbicidal effect rating, B: Japanese bulrush (Japanese bulrush; AAH 285 g/ha): 3 (Herbicidal rate of 40% or more and less than 70%); herbicidal effect rating, C: oval-leafed pondweed (oval-leafed pondweed; AAH 285 g/ha): 1 (Herbicidal rate of 5% or more and less than 20%); herbicidal effect on H: barnyard grass (barnyard grass [1]; [3]): 5 (Herbicidal rate of 90% or more (almost completely withered)); herbicidal effect on D: Chinese sprangletop (Chinese sprangletop; [3]): 3 (Herbicidal rate of 40% or more and less than 70%); herbicidal effect on E: rice flat sedge (rice flat sedge; [3]): 5 (Herbicidal rate of 90% or more (almost completely withered)); F: southern crabgrass, herbicidal effect grade (southern crabgrass; [4]): 3 (Herbicidal rate of 40% or more and less than 70%); G: green foxtail, herbicidal effect grade (green foxtail; [4]): 5 (Herbicidal rate of 90% or more (almost completely withered)); H: barnyard grass, herbicidal effect grade (barnyard grass [2]; [4]): 4 (Herbicidal rate of 70% or more and less than 90%); I: wild oat, herbicidal effect grade (wild oat; [4]): 1 (Herbicidal rate of 5% or more and less than 20%); J: blackgrass, herbicidal effect grade (blackgrass; [4]): 4 (Herbicidal rate of 70% or more and less than 90%); K: Italian ryegrass, herbicidal effect grade (Italian ryegrass; [4]): 3 (Herbicidal rate of 40% or more and less than 70%); L: windgrass, herbicidal effect grade (windgrass; [4]): 4 (Herbicidal rate of 70% or more and less than 90%); M: velvetleaf, herbicidal effect grade (velvetleaf; [4]): 5 (Herbicidal rate of 90% or more (almost completely withered)); N: redroot pigweed, herbicidal effect grade (redroot pigweed; [4]): 5 (Herbicidal rate of 90% or more (almost completely withered)); O: lambsquarters, herbicidal effect grade (lambsquarters; [4]): 3 (Herbicidal rate of 40% or more and less than 70%); P: chickweed, herbicidal effect grade (chickweed; [4]): 4 (Herbicidal rate of 70% or more and less than 90%); R: persian speedwell, herbicidal effect grade (persian speedwell; [4]): 0 (Herbicidal rate of 5% or less (almost no effect))
CCCC(=O)Oc1c(C)nn(C)c(=O)c1-c1c(-c2ccc(Cl)cc2)sc2c(Cl)cccc12 [4-018]	0 (Herbicidal rate of 5% or less (almost no effect))	3 (Herbicidal rate of 40% or more and less than 70%)	3 (Herbicidal rate of 40% or more and less than 70%)	4 (Herbicidal rate of 70% or more and less than 90%)	4 (Herbicidal rate of 70% or more and less than 90%)	3 (Herbicidal rate of 40% or more and less than 70%)	0 (Herbicidal rate of 5% or less (almost no effect))	0 (Herbicidal rate of 5% or less (almost no effect))	0 (Herbicidal rate of 5% or less (almost no effect))	3 (Herbicidal rate of 40% or more and less than 70%)	4 (Herbicidal rate of 70% or more and less than 90%)	3 (Herbicidal rate of 40% or more and less than 70%)	5 (Herbicidal rate of 90% or more (almost completely withered))	4 (Herbicidal rate of 70% or more and less than 90%)	3 (Herbicidal rate of 40% or more and less than 70%)	0 (Herbicidal rate of 5% or less (almost no effect))	5 (Herbicidal rate of 90% or more (almost completely withered))	4 (Herbicidal rate of 70% or more and less than 90%)	
CCCC(=O)Oc1c(C)nn(C)c(=O)c1-c1c(-c2ccc(C(F)(F)F)cc2F)sc2c(Cl)cccc12 [4-038]	2 (Herbicidal rate of 20% or more and less than 40%)	3 (Herbicidal rate of 40% or more and less than 70%)	0 (Herbicidal rate of 5% or less (almost no effect))	4 (Herbicidal rate of 70% or more and less than 90%)	5 (Herbicidal rate of 90% or more (almost completely withered))	4 (Herbicidal rate of 70% or more and less than 90%)	0 (Herbicidal rate of 5% or less (almost no effect))	0 (Herbicidal rate of 5% or less (almost no effect))	0 (Herbicidal rate of 5% or less (almost no effect))	2 (Herbicidal rate of 20% or more and less than 40%)	0 (Herbicidal rate of 5% or less (almost no effect))	4 (Herbicidal rate of 70% or more and less than 90%)	5 (Herbicidal rate of 90% or more (almost completely withered))	0 (Herbicidal rate of 5% or less (almost no effect))	0 (Herbicidal rate of 5% or less (almost no effect))	0 (Herbicidal rate of 5% or less (almost no effect))	4 (Herbicidal rate of 70% or more and less than 90%)	4 (Herbicidal rate of 70% or more and less than 90%)	
